# Test results published in patent publication US5519034A, “Tetraisoquinoline compounds which have useful pharmaceutical utility” (The Boots Company PLC, priority 1991, dated 1996).
# pKi: −log10 of the molar value. Read-outs that look alike come from different tables or passages of the source.
# Tests used:
# D2 dopamine receptors = target: T1, D2 dopamine receptors (Rattus norvegicus, UniProt P61169); test: D2 dopamine receptor binding: inhibition of tritiated (S)-sulpiride binding, rat striatal samples; set-up: species or system rat (male Charles River CD rats); settings: for pKi: rat striatum, tritiated (S)-sulpiride; for Ki for D2 / Ki for D1: ratio to two significant figures
# T1 construct: Striatal samples from the brains of male Charles River CD rats; from tissue; host or cells: striatum of male Charles River CD rats (washed membrane pellet)
# Procedure: (§1) Striatal samples from the brains of male Charles River CD rats weighing between 140-250 g were homogenised in ice-cold 50 mM Tris-HCl buffer (pH 7.4 when measured at 25° C. for D1 binding assays and pH 7.7 when measured at 25° C. for D2 binding assays) and centrifuged for 10 minutes (at 21,000 g when used for D1binding assay and 40,000 g when used for D2binding assays). The pellet was resuspended in the same buffer, again centrifuged and the final pellet stored at -80° C. Before each test the pellet was resuspended in 50 mM Tris-HCl buffer containing 120 mM NaCl, 5 mM KCl, 2 mM CaCl2 and 1 mM MgCl2 at pH 7.4 for the D1 binding assays and at pH 7.7 with the addition of 6 mM ascorbic acid for the D2 binding assays. Aliquots of this suspension were then added to tubes containing the ligand and either the compound under test or buffer. For the D1 binding assays the ligand was tritiated SCH 23390 and the mixture was incubated at 37° C. for 30 minutes before the incubation was terminated by rapid filtration. For the D2 binding assays the ligand was tritiated (S)-sulpiride and the mixture was incubated at 4° C. for 40 minutes before the incubation was terminated by rapid filtration. Non-specific binding was determined experimentally by the addition of saturating concentrations of chloropromazine or spiroperidol for D1 and D2 receptors respectively.
# (§2) The filters were washed with ice-cold Tris-HCl buffer and dried. The filters were punched out on to vials containing scintillation fluid and were left for about 20 hours before being counted by scintillation spectrophotometry. Displacement curves were produced over a range of concentrations of the compound under test and the concentration which gave a 50% inhibition of specific binding (IC50) obtained from the curve. The inhibition coefficient Ki was then calculated using the formula [formula] in which [ligand] is the concentration of the tritiated ligand used and KD is the equilibrium dissociation constant for the ligand.
# (§3) In some cases Ki values for D2 binding were estimated from single concentration data by the application of the Langmuir adsorption isotherm equation. These cases are indicated by an "E" in the last two columns of Table I. In other cases it was not possible to determine or estimate the Ki and the Ki value is given as greater than (>) that which would result from the application of the above formula to the highest concentration which displaced ≤50% of the ligand.
# D1 dopamine receptors = target: T2, D1 dopamine receptors (Rattus norvegicus, UniProt P18901); test: D1 dopamine receptor binding: inhibition of tritiated SCH 23390 binding, rat striatal samples; set-up: species or system rat (male Charles River CD rats); settings: rat striatum, tritiated SCH 23390, pH 7.4, 37° C., 30 minutes
# T2 construct: Striatal samples from the brains of male Charles River CD rats; from tissue; host or cells: striatum of male Charles River CD rats (washed membrane pellet)
# Procedure: as §1, §2, §3
# [1] = pH 7.7, 4° C., 40 minutes, > = from highest concentration which displaced ≤50% of the ligand, read-out: Ki for D2 binding
# [2] = estimated from single concentration data by Langmuir adsorption isotherm equation, read-out: Ki for D2 binding (marked E)
# T2 sequence (P18901 whole entry): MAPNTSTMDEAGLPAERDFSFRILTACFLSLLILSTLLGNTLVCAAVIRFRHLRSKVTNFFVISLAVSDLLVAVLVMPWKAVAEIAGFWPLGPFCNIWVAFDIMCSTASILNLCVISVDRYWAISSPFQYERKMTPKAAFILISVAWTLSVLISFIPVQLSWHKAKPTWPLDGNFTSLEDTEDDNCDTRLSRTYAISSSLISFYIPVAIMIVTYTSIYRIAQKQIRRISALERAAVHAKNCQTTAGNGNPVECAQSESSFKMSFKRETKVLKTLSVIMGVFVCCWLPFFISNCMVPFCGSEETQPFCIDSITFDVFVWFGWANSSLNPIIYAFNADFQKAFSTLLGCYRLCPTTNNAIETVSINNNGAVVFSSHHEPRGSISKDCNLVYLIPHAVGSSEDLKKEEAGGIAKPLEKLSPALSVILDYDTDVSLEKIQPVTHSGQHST
# T1 sequence (P61169 whole entry): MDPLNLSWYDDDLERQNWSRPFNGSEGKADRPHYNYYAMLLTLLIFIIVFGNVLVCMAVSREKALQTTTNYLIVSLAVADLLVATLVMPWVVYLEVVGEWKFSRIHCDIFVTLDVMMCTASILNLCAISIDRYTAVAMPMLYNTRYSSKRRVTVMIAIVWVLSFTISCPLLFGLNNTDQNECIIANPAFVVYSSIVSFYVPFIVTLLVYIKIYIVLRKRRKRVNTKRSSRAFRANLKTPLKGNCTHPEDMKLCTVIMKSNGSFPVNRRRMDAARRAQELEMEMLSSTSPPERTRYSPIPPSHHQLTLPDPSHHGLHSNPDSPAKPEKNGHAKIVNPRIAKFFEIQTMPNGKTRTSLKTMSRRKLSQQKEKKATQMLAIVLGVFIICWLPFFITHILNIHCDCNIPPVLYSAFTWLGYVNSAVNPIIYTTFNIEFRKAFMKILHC
structure (smiles),measurement,setting,value
"CN1CCc2cc(O)c(O)cc2C1C1(c2ccc(Cl)cc2)CCC1 (stereo not shown) [Example 50, 1-[1-(4-chlorophenyl)cyclobutyl]-6,7-dihydroxy-2-methyl-1,2,3,4-tetrahydroisoquinoline]",pKi,D2 dopamine receptors; [1],5.82
same,Ki for D2 / Ki for D1,D2 dopamine receptors,60
same,pKi,D1 dopamine receptors,7.60
"CN1CCc2ccc(O)cc2C1C1(c2ccc(Cl)cc2)CCC1 (stereo not shown) [Example 51, 1-[1-(4-chlorophenyl)cyclobutyl]-7-hydroxy-2-methyl-1,2,3,4-tetrahydroisoquinoline]",pKi,D2 dopamine receptors; [1],< 6.30
same,Ki for D2 / Ki for D1,D2 dopamine receptors,> 38
same,pKi,D1 dopamine receptors,7.89
"CN1CCc2cc(Cl)c(O)cc2C1C1(c2ccccc2)CCC1 (stereo not shown) [Example 52, 6-chloro-7-hydroxy-2-methyl-1-(1-phenylcyclobutyl)-1,2,3,4-tetrahydroisoquinoline]",pKi,D2 dopamine receptors; [1],5.27
same,Ki for D2 / Ki for D1,D2 dopamine receptors,320
same,pKi,D1 dopamine receptors,7.77
"CN1CCc2cc(Cl)c(O)cc2C1C1(c2ccc(Cl)cc2)CCC1 (stereo not shown) [Example 53, 6-chloro-1-[1-(4-chlorophenyl)cyclobutyl]-7-hydroxy-2-methyl-1,2,3,4-tetrahydroisoquinoline]",pKi,D2 dopamine receptors; [1],5.12
same,Ki for D2 / Ki for D1,D2 dopamine receptors,320
same,pKi,D1 dopamine receptors,7.62
COc1ccc(C2(C3c4cc(O)c(O)cc4CCN3C)CCC2)cc1 (stereo not shown) [Example 54],pKi,D2 dopamine receptors; [1],5.52
same,Ki for D2 / Ki for D1,D2 dopamine receptors,94
same,pKi,D1 dopamine receptors,7.49
"COc1cc2c(cc1O)C(C1(c3ccccc3)CCC1)N(C)CC2 (stereo not shown) [Example 55, 7-hydroxy-6-methoxy-2-methyl-1-(1-phenylcyclobutyl)-1,2,3,4-tetrahydroisoquinoline]",pKi,D2 dopamine receptors; [1],< 6.30
same,Ki for D2 / Ki for D1,D2 dopamine receptors,> 12
same,pKi,D1 dopamine receptors,7.39
"COc1cc2c(cc1O)C(C1(c3cc(OC)c(OC)cc3Br)CCC1)N(C)CC2 (stereo not shown) [Example 56, 1-[1-(2-bromo-4,5-dimethoxyphenyl)cyclobutyl]-7-hydroxy-6-methoxy-2-methyl-1,2,3,4-tetrahydroisoquinoline]",pKi,D2 dopamine receptors; [1],4.28
same,Ki for D2 / Ki for D1,D2 dopamine receptors,23000
same,pKi,D1 dopamine receptors,8.64
"CN1CCc2cc([N+](=O)[O-])c(O)cc2C1C1(c2ccccc2)CCC1 (stereo not shown) [Example 57, 7-hydroxy-2-methyl-6-nitro-1-(1-phenylcyclobutyl)-1,2,3,4-tetrahydroisoquinoline]",pKi,D2 dopamine receptors; [1],< 5.30
same,Ki for D2 / Ki for D1,D2 dopamine receptors,> 6.5
same,pKi,D1 dopamine receptors,6.11
"CN1CCc2cc(Cl)c(O)c(Cl)c2C1C1(c2ccccc2)CCC1 (stereo not shown) [Example 58, 6,8-dichloro-7-hydroxy-2-methyl-1-(1-phenylcyclobutyl)-1,2,3,4-tetrahydroisoquinoline]",pKi,D2 dopamine receptors; [1],3.44
same,Ki for D2 / Ki for D1,D2 dopamine receptors,490
same,pKi,D1 dopamine receptors,6.13
"CN1CCc2cc(F)c(O)cc2C1C1(c2ccccc2Cl)CC1 (stereo not shown) [Example 61, 1-[1-(2-chlorophenyl)cyclopropyl]-6-fluoro-7-hydroxy-2-methyl-1,2,3,4-tetrahydroisoquinoline]",pKi,D2 dopamine receptors; [1],6.35
same,Ki for D2 / Ki for D1,D2 dopamine receptors,2500
same,pKi,D1 dopamine receptors,9.74
"CN1CCc2cc(F)c(O)cc2C1C1(c2ccccc2Cl)CC1 (stereo not shown) [Example 63, 1-[1-(2-chlorophenyl)cyclopropyl]-6-fluoro-7-hydroxy-2-methyl-1,2,3,4-tetrahydroisoquinoline]",pKi,D2 dopamine receptors; [1],5.80
same,Ki for D2 / Ki for D1,D2 dopamine receptors,800
same,pKi,D1 dopamine receptors,8.70
"C=CCN1CCc2cc(Cl)c(O)cc2C1C1(c2ccccc2)CCC1 (stereo not shown) [Example 65, 2-allyl-6-chloro-7-hydroxy-1-(1-phenylcyclobutyl)-1,2,3,4-tetrahydroisoquinoline]",pKi,D2 dopamine receptors; [1],4.29
same,Ki for D2 / Ki for D1,D2 dopamine receptors,2300
same,pKi,D1 dopamine receptors,7.66
"CCN1CCc2cc(O)c(O)cc2C1C1(c2ccc(Cl)cc2)CCC1 (stereo not shown) [Example 66, 1-[1-(4-chlorophenyl)cyclobutyl]-2-ethyl-6,7-dihydroxy-1,2,3,4-tetrahydroisoquinoline]",pKi,D2 dopamine receptors; [1],< 6.30
same,Ki for D2 / Ki for D1,D2 dopamine receptors,> 4.2
same,pKi,D1 dopamine receptors,6.92
"C=CCN1CCc2cc(O)c(O)cc2C1C1(c2ccc(Cl)cc2)CCC1 (stereo not shown) [Example 67, 2-allyl-1-[1-(4-chlorophenyl)cyclobutyl]-6,7-dihydroxy-1,2,3,4-tetrahydroisoquinoline]",pKi,D2 dopamine receptors; [2],5.15
same,pKi,D1 dopamine receptors,7.28
"COc1cc2c(cc1O)C(C1(c3ccccc3Br)CCC1)N(C)CC2 (stereo not shown) [Example 68, 1-[1-(2-bromophenyl)cyclobutyl]-7-hydroxy-6-methoxy-2-methyl-1,2,3,4-tetrahydroisoquinoline]",pKi,D2 dopamine receptors; [1],5.72
same,Ki for D2 / Ki for D1,D2 dopamine receptors,950
same,pKi,D1 dopamine receptors,8.70
"COc1cc2c(cc1O)C(C1(c3ccccc3Cl)CCC1)N(C)CC2 (stereo not shown) [Example 69, 1-[1-(2-chlorophenyl)cyclobutyl]-7-hydroxy-6-methoxy-2-methyl-1,2,3,4-tetrahydroisoquinoline]",pKi,D2 dopamine receptors; [1],5.24
same,Ki for D2 / Ki for D1,D2 dopamine receptors,2800
same,pKi,D1 dopamine receptors,8.68
"COc1cc2c(cc1O)C(C1(c3ccccc3Cl)CC(C)(C)C1)N(C)CC2 (stereo not shown) [Example 70, 7-hydroxy-6-methoxy-2-methyl-1-[1-(2-chlorophenyl)-3,3-dimethylcyclobutyl]-1,2,3,4-tetrahydroisoquinoline]",pKi,D2 dopamine receptors; [1],4.46
same,Ki for D2 / Ki for D1,D2 dopamine receptors,1700
same,pKi,D1 dopamine receptors,7.68
"CSc1ccccc1C1(C2c3cc(O)c(O)cc3CCN2C)CCC1 (stereo not shown) [Example 71, 6,7-dihydroxy-2-methyl-1-[1-(2-methylthiophenyl)cyclobutyl]-1,2,3,4-tetrahydroisoquinoline]",pKi,D2 dopamine receptors; [1],5.74
same,Ki for D2 / Ki for D1,D2 dopamine receptors,1200
same,pKi,D1 dopamine receptors,8.82
"COc1cc2c(cc1O)C(C1(c3ccc(OC(F)(F)F)cc3)CCC1)N(C)CC2 (stereo not shown) [Example 72, 7-hydroxy-6-methoxy-2-methyl-1-[1-(4-trifluoromethoxyphenyl)cyclobutyl]-1,2,3,4-tetrahydroisoquinoline]",pKi,D2 dopamine receptors; [1],5.02
same,Ki for D2 / Ki for D1,D2 dopamine receptors,200
same,pKi,D1 dopamine receptors,7.33
"COc1cc2c(cc1O)C(C1(c3ccccc3OC)CC1)N(C)CC2 (stereo not shown) [Example 73, 7-hydroxy-6-methoxy-1-[1-(2-methoxyphenyl)cyclopropyl]-2-methyl-1,2,3,4-tetrahydroisoquinoline]",pKi,D2 dopamine receptors; [1],5.30
same,Ki for D2 / Ki for D1,D2 dopamine receptors,5500
same,pKi,D1 dopamine receptors,9.05
"COc1cc2c(cc1O)C(C1(c3ccccc3Cl)CC1)N(C)CC2 (stereo not shown) [Example 74, 1-[1-(2-chlorophenyl)cyclopropyl]-7-hydroxy-6-methoxy-2-methyl-1,2,3,4-tetrahydroisoquinoline]",pKi,D2 dopamine receptors; [1],5.96
same,Ki for D2 / Ki for D1,D2 dopamine receptors,730
same,pKi,D1 dopamine receptors,8.82
"COCCN1CCc2cc(OC)c(O)cc2C1C1(c2ccccc2Cl)CC1 (stereo not shown) [Example 75, 1-[1-(2-chlorophenyl)cyclopropyl]-7-hydroxy-6-methoxy-2-(2-methoxyethyl)-1,2,3,4-tetrahydroisoquinoline]",pKi,D2 dopamine receptors; [1],< 5.30
same,Ki for D2 / Ki for D1,D2 dopamine receptors,> 33
same,pKi,D1 dopamine receptors,6.82
"COc1cc2c(cc1O)C(C1(c3ccccc3Cl)CC1)N(CCO)CC2 (stereo not shown) [Example 76, 1-[1-(2-chlorophenyl)cyclopropyl]-7-hydroxy-2-(2-hydroxyethyl)-6-methoxy-1,2,3,4-tetrahydroisoquinoline]",pKi,D2 dopamine receptors; [1],< 5.30
same,Ki for D2 / Ki for D1,D2 dopamine receptors,> 83
same,pKi,D1 dopamine receptors,7.22
"CN1CCc2cc(O)c(O)cc2C1C1(c2ccc(-c3ccccc3)cc2)CCC1 (stereo not shown) [Example 78, 6,7-dihydroxy-2-methyl-1-[1-(4-biphenylyl)cyclobutyl]-1,2,3,4-tetrahydroisoquinoline]",pKi,D2 dopamine receptors; [1],6.26
same,Ki for D2 / Ki for D1,D2 dopamine receptors,5.9
same,pKi,D1 dopamine receptors,7.03
"Cc1cc2c(cc1O)C(C1(c3ccccc3Cl)CC1)N(C)CC2 (stereo not shown) [Example 79, 1-[1-(2-chlorophenyl)cyclopropyl]-7-hydroxy-2,6-dimethyl-1,2,3,4-tetrahydroisoquinoline]",pKi,D2 dopamine receptors; [1],6.03
same,Ki for D2 / Ki for D1,D2 dopamine receptors,780
same,pKi,D1 dopamine receptors,8.92
"CN1CCc2cc(F)c(O)cc2C1C1(c2ccc(Cl)cc2Cl)CC1 (stereo not shown) [Example 81, 1-[1-(2,4-dichlorophenyl)cyclopropyl]-6-fluoro-7-hydroxy-2-methyl-1,2,3,4-tetrahydroisoquinoline]",pKi,D2 dopamine receptors; [1],6.48
same,Ki for D2 / Ki for D1,D2 dopamine receptors,170
same,pKi,D1 dopamine receptors,8.72
"COc1cc2c(cc1O)C(C1(c3cccc4c3OCC4)CC1)N(C)CC2 (stereo not shown) [Example 82, 1-[1-(2,3-dihydrobenzo[b]furan-7-yl)cyclopropyl]-7-hydroxy-6-methoxy-2-methyl-1,2,3,4-tetrahydroisoquinoline]",pKi,D2 dopamine receptors; [1],5.31
same,Ki for D2 / Ki for D1,D2 dopamine receptors,2700
same,pKi,D1 dopamine receptors,8.74
"CN1CCc2cc(O)c(O)cc2C1C1(c2ccccc2C#N)CCC1 (stereo not shown) [Example 83, 1-[1-(2-cyanophenyl)cyclobutyl]-6,7-dihydroxy-2-methyl-1,2,3,4-tetrahydroisoquinoline]",pKi,D2 dopamine receptors; [2],5.18
same,pKi,D1 dopamine receptors,7.68
